Test results as given in PubChem BioAssay AID1963825 (Molecular Pharmacology Branch, DTP, NCI, 2024).

Assay: Anticancer human tumor 997537-175-T-J1-PDC patient-derived colon adenocarcinoma cell line growth inhibition [POLQ]
Details: 997537-175-T-J1-PDC complex spheroid viability, combination with POLQ inhibitors; for IC50: curve of first compound; for viability, T/C: stronger effect = lower value; active means viability on the fitted dose curve at most 10% of control; inactive means the rest
How it was run: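 Growth inhibition in 3D: complex spheroids (tumor PDC, HUVEC, MSC) treated with POLQ inhibitor combinations; where Cmax unknown, highest tested concentration 10 microM, except SN-38 at 1 microM.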
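Further: luminescence signal used as a surrogate for viable cells; spheroids exposed to drugs for seven days before readout.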

CC(=O)O[C@H]1C(=O)[C@@]2(C)[C@H]([C@H](OC(=O)c3ccccc3)[C@]3(O)C[C@H](OC(=O)[C@H](O)[C@@H](NC(=O)c4ccccc4)c4ccccc4)C(C)=C1C3(C)C)[C@]1(OC(C)=O)CO[C@@H]1C[C@@H]2O + COC1C(OC(N)=O)C(O)C(Oc2ccc3c(O)c(NC(=O)c4ccc(O)c(CC=C(C)C)c4)c(=O)oc3c2C)OC1(C)C
0.017 µM: IC50 (second compound 10 µM)
< 0.00949 µM: IC50 (second compound 0.1 µM)
0.0186 µM: IC50 (second compound 0.0316 µM)
0.0826 µM: IC50 (second compound 0.316 µM)
inactive: viability, T/C (second compound 0.0316 µM, first compound 0.00949 µM) 65.5% | viability, T/C (second compound 0.0316 µM, first compound 0.03 µM) 41.5% | viability, T/C (second compound 0.0316 µM, first compound 0.0949 µM) 24.5% | viability, T/C (second compound 0.0316 µM, first compound 0.3 µM) 41.6% | viability, T/C (second compound 0.0316 µM, first compound 0.949 µM) 23.9% | viability, T/C (second compound 0.0316 µM, first compound 3 µM) 42% | viability, T/C (second compound 0.1 µM, first compound 0.00949 µM) 46.6% | viability, T/C (second compound 0.1 µM, first compound 0.03 µM) 41% | viability, T/C (second compound 0.1 µM, first compound 0.0949 µM) 23.9% | viability, T/C (second compound 0.1 µM, first compound 0.3 µM) 44.9% | viability, T/C (second compound 0.1 µM, first compound 0.949 µM) 21.9% | viability, T/C (second compound 0.1 µM, first compound 3 µM) 28.1% | viability, T/C (second compound 0.316 µM, first compound 0.00949 µM) 70.7% | viability, T/C (second compound 0.316 µM, first compound 0.03 µM) 60.1% | viability, T/C (second compound 0.316 µM, first compound 0.0949 µM) 34.6% | viability, T/C (second compound 0.316 µM, first compound 0.3 µM) 50.9% | viability, T/C (second compound 0.316 µM, first compound 0.949 µM) 34% | viability, T/C (second compound 0.316 µM, first compound 3 µM) 18.2% | viability, T/C (second compound 1 µM, first compound 0.00949 µM) 66.9% | viability, T/C (second compound 1 µM, first compound 0.03 µM) 32.5% | viability, T/C (second compound 1 µM, first compound 0.0949 µM) 22.9% | viability, T/C (second compound 1 µM, first compound 0.3 µM) 29.6% | viability, T/C (second compound 1 µM, first compound 0.949 µM) 29.9% | viability, T/C (second compound 1 µM, first compound 3 µM) 35.3% | viability, T/C (second compound 3.16 µM, first compound 0.00949 µM) 61.8% | viability, T/C (second compound 3.16 µM, first compound 0.03 µM) 24.9% | viability, T/C (second compound 3.16 µM, first compound 0.0949 µM) 22.7% | viability, T/C (second compound 3.16 µM, first compound 0.3 µM) 30.7% | viability, T/C (second compound 3.16 µM, first compound 0.949 µM) 44% | viability, T/C (second compound 3.16 µM, first compound 3 µM) 28.1% | viability, T/C (second compound 10 µM, first compound 0.00949 µM) 67.2% | viability, T/C (second compound 10 µM, first compound 0.03 µM) 27% | viability, T/C (second compound 10 µM, first compound 0.0949 µM) 35.5% | viability, T/C (second compound 10 µM, first compound 0.3 µM) 40.1% | viability, T/C (second compound 10 µM, first compound 0.949 µM) 27.4% | viability, T/C (second compound 10 µM, first compound 3 µM) 35.6%
0.0146 µM: IC50 (second compound 3.16 µM)
0.0165 µM: IC50 (second compound 1 µM)
